As a reminder, the IC50 is the concentration that gives 50% inhibition. A high value points to lower potency.

EGFR (human), sequence (P00533 whole entry, looked up): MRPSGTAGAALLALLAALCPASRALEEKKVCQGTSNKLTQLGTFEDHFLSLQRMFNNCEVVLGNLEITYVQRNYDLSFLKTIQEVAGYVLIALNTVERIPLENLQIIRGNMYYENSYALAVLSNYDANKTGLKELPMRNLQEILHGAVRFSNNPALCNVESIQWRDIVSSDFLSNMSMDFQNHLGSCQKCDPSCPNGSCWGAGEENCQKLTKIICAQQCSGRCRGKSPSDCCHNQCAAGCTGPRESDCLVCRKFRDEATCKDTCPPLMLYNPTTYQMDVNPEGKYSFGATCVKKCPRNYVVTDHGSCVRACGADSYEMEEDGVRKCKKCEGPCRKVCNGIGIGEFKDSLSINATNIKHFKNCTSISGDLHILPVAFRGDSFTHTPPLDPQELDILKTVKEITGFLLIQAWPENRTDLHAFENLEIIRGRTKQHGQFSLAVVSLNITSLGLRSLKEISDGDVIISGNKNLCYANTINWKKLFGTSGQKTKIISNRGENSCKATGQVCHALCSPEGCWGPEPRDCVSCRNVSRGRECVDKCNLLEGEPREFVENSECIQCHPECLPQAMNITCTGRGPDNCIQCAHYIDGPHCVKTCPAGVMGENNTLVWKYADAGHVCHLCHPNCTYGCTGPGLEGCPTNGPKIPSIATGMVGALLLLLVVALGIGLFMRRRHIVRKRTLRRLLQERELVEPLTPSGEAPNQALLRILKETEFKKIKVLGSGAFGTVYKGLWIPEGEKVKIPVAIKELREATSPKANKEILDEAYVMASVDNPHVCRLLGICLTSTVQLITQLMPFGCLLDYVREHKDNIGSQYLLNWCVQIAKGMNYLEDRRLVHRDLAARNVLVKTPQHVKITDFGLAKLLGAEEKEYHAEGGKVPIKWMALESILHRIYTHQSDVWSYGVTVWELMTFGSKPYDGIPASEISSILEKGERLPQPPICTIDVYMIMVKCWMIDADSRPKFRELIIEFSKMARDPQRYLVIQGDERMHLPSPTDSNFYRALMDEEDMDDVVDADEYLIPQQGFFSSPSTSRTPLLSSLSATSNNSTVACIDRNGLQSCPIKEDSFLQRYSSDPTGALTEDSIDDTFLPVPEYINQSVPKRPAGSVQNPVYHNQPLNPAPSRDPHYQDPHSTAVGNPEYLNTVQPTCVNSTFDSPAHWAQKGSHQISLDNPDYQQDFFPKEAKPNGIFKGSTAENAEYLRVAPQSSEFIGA

The assay addresses EGFR (human) (UniProt P00533). The note with it: a431.
`C=CC(=O)N1CCC(Oc2cc3c(Nc4cccc(C(F)(F)F)c4F)ncnc3cc2OC)CC1`: the IC50 came to 11 nM.

In the case of `C/C=C/C(=O)N1CC[C@H](Oc2cc3c(Nc4ccc(F)c(Cl)c4F)ncnc3cc2OC)C1`, the IC50 came out at 85 nM.

Turning to `C=CC(=O)N1CC[C@@H](Oc2cc3c(Nc4ccc(F)c(Cl)c4F)ncnc3cc2OC)C[C@@H]1C(=O)NCCS(C)(=O)=O`, the half-maximal inhibitory concentration (IC50) worked out at 2.4 nM.

Compound `C=CC(=O)N1CCC(Oc2cc3c(Nc4ccccc4Cl)ncnc3cc2OC)CC1` registered an IC50 of 65 nM. The same measure for `CNC(=O)/C=C/C(=O)N1CCC(Oc2cc3c(Nc4ccc(F)c(Cl)c4F)ncnc3cc2OC)CC1`: 48 nM; for `C=CC(=O)N1CC[C@H](Oc2cc3c(Nc4cccc(Cl)c4F)ncnc3cc2OC)C1`: 531 nM.

`CC#CC(=O)N1CCC(Oc2cc3c(Nc4ccc(F)c(Cl)c4F)ncnc3cc2OC)CC1` returned an IC50 of 190 nM. `COc1cc2ncnc(Nc3ccc(Cl)c(Cl)c3F)c2cc1OC1CCN(C(=O)/C=C\Cl)CC1` had an IC50 of 14 nM. Consider `C=C(CN1CCOCC1)C(=O)N1CCC(Oc2cc3c(Nc4ccc(F)c(Cl)c4F)ncnc3cc2OC)CC1`, for which the IC50 was determined as 10 nM. The same measure for `C=CC(=O)N1CC[C@H](Oc2cc3c(Nc4ccc(F)c(Cl)c4F)ncnc3cc2OC)C[C@H]1C(=O)NC`: 2.2 nM. With `COc1cc2ncnc(Nc3cccc(Cl)c3F)c2cc1O[C@H]1CCN(C(=O)/C=C/CN(C)C)C1` the figure was 8 nM; with `C=CC(=O)N1CCC(Oc2cc3c(Nc4cccc(CCl)c4)ncnc3cc2OC)CC1`, 26 nM. The same measure for `C=C(C)C(=O)N1CC(Oc2cc3c(Nc4ccc(F)c(Cl)c4F)ncnc3cc2OC)C1`: 29 nM; for `C=C(CN1CCCCC1)C(=O)N1CC(Oc2cc3c(Nc4cccc(Cl)c4F)ncnc3cc2OC)C1`: 2.4 nM. `C=CC(=O)NCCOc1cc2c(Nc3ccc(F)c(Cl)c3F)ncnc2cc1OC` returned an IC50 of 699 nM. The same measure for `C=CC(=O)N1CCC(Oc2cc3c(Nc4cccc(S)c4)ncnc3cc2OC)CC1`: 300 nM; for `C=CC(=O)N1CCCC(Oc2cc3c(Nc4ccc(F)c(Cl)c4F)ncnc3cc2OC)C1` (stereo unspecified): 6 nM; for `C=C(NC(C)=O)C(=O)N1CCC(Oc2cc3c(Nc4ccc(Cl)c(Cl)c4F)ncnc3cc2OC)CC1`: 50 nM.

As to `COc1cc2ncnc(Nc3ccc(F)c(Cl)c3F)c2cc1OC1CCN(C(=O)/C=C\C(=O)O)CC1`, the IC50 worked out at 41 nM. For the compound `C=CC(=O)N1CCC(Oc2cc3c(Nc4cccc(SC)c4)ncnc3cc2OC)CC1`, the 50% inhibitory concentration (IC50) was 305 nM.

`C=CC(=O)N1CC[C@@H](Oc2cc3c(Nc4ccc(Br)cc4F)ncnc3cc2OC)C[C@@H]1C(N)=O` showed an IC50 of 1.1 nM. The same measure for `COc1cc2ncnc(Nc3ccc(Cl)c(Cl)c3F)c2cc1OC1CCN(C(=O)/C=C/Cl)CC1`: 39 nM; for `C=CC(=O)N1CC[C@H](Oc2cc3c(Nc4ccc(F)c(Cl)c4F)ncnc3cc2OC)C[C@H]1C(=O)OC`: 5 nM.

In the case of `C=CC(=O)N1CC[C@H](Oc2cc3c(Nc4ccc(F)c(Cl)c4F)ncnc3cc2OC)C[C@H]1C(=O)NO`, the 50% inhibitory concentration (IC50) came out at 10 nM. With `COc1cc2ncnc(Nc3ccc(F)c(Cl)c3F)c2cc1OC1CCN(C(=O)/C=C\CN(C)C)CC1` the figure was 6 nM; with `C=CC(=O)N1CCC(Oc2cc3c(Nc4ccc(Cl)c(C)c4)ncnc3cc2OC)CC1`, 93 nM; with `C=CC(=O)N1CCC(Oc2cc3c(Nc4ccc(Cl)c(O)c4)ncnc3cc2OC)CC1`, 105 nM. `C=CC(=O)N1CCC(Oc2cc3c(Nc4cccc(C#N)c4)ncnc3cc2OC)CC1` came in with an IC50 of 3.7 nM. With `C=CC(=O)N1CC(Oc2cc3c(Nc4ccc(F)c(Cl)c4F)ncnc3cc2O)C1`, the IC50 turned out to be 381 nM.

Consider `COC(=O)/C=C\C(=O)N1CC(Oc2cc3c(Nc4cccc(Cl)c4F)ncnc3cc2OC)C1`, for which the IC50 stood at 1 nM. With `C=CC(=O)N1CC[C@H](Oc2cc3c(Nc4ccc5c(cnn5Cc5cccc(F)c5)c4)ncnc3cc2OC)C1` the figure was 19 nM; with `C=CC(=O)N1CC[C@@H](Oc2cc3c(Nc4ccc(F)c(Cl)c4F)ncnc3cc2OC)C[C@@H]1C(=O)NO`, 1.7 nM; with `C=CC(=O)N1CCC(Oc2cc3c(NCc4cccc(Cl)c4)ncnc3cc2OC)CC1`, 61 nM. With `C=CC(=O)N1CCC(Oc2cc3c(Nc4cc(Cl)c(O)c(Cl)c4)ncnc3cc2OC)CC1` the figure was 179 nM; with `C=CC(=O)N1CCC(Oc2cc3c(Nc4ccc(O)c(F)c4)ncnc3cc2OC)CC1`, 129 nM. With `C=CC(=O)N1CC[C@H](Oc2cc3c(Nc4ccc(Br)cc4F)ncnc3cc2OC)C1` the figure was 15 nM. For the compound `COc1cc2ncnc(Nc3ccc(F)c(Cl)c3F)c2cc1O[C@H]1CCN(C(=O)/C=C/CN2CCCC2)C1`, the IC50 was determined as 8 nM. `C=CC(=O)N1CCC(Oc2cc3c(Nc4cccc([N+](=O)[O-])c4)ncnc3cc2OC)CC1` displayed an IC50 of 11 nM. The IC50 values of the last two compounds are within 1.5-fold of each other. With `C=C(CO)C(=O)N1CCC(Oc2cc3c(Nc4ccc(Cl)c(Cl)c4F)ncnc3cc2OC)CC1` the figure was 44 nM.

`COc1cc2ncnc(Nc3ccc(F)c(Cl)c3F)c2cc1O[C@H]1CCN(C(=O)C#CCN(C)C)C1` returned an IC50 of 33 nM. The same measure for `C=CC(=O)N1CCC(Oc2cc3c(Nc4ccc(O)cc4Cl)ncnc3cc2OC)CC1`: 176 nM; for `C=CC(=O)N1CCC(Oc2cc3c(Nc4ccc(F)c(C#N)c4)ncnc3cc2OC)CC1`: 8 nM. Consider `C=CC(=O)N1CCC(Oc2cc3c(Nc4ccc(Cl)c(C#N)c4)ncnc3cc2OC)CC1`, for which the IC50 was found to be 35 nM.

Consider `COc1cc2ncnc(Nc3ccc(F)c(Cl)c3F)c2cc1OCCNC(=O)/C=C/CN(C)C`, for which the IC50 was 18 nM. The same measure for `COc1cc2ncnc(Nc3ccc(F)c(Cl)c3F)c2cc1OC1CN(C(=O)/C=C/CN(C)C)C1`: 36 nM. Turning to `C=CC(=O)N1CCC(Oc2cc3c(Nc4cccc(Cl)c4C)ncnc3cc2OC)CC1`, the IC50 worked out at 9 nM. This IC50 is about 4-fold lower than that of the compound before. For the compound `C=CC(=O)N1CC[C@H](Oc2cc3c(Nc4ccc(F)c(Cl)c4F)ncnc3cc2OC)C[C@H]1C(=O)NCCN1CCOCC1`, the IC50 is 8.3 nM. The same measure for `C=CC(=O)N1CC[C@H](Oc2cc3c(Nc4ccc(F)c(Cl)c4F)ncnc3cc2OC)C[C@H]1C(=O)NCCC`: 12 nM; for `C=CC(=O)N1CCC(Oc2cc3c(Nc4ccc(F)c(Cl)c4F)ncnc3cc2OCCCN2CCOCC2)CC1`: 4 nM. Take `COc1cc2ncnc(Nc3ccc(F)c(Cl)c3F)c2cc1O[C@H]1CCN(C(=O)/C=C/CN2CCOCC2)C1`: the IC50 stood at 85 nM. Compared with the last compound, the IC50 is about 21-fold higher.

In turn, `C=CC(=O)N1CCC(Oc2cc3c(N[C@H](C)c4ccccc4)ncnc3cc2OC)CC1` registered an IC50 of 514 nM. The same measure for `COc1cc2ncnc(Nc3cccc(Cl)c3F)c2cc1OC1CCN(C(=O)/C=C/CN(C)C)CC1`: 76 nM; for `COc1cc2ncnc(Nc3cccc(Cl)c3F)c2cc1OC1CN(C(=O)/C=C/CN(C)C)C1`: 9 nM. The same measure for `C=CC(=O)Nc1cccc(Nc2ncnc3cc(OC)c(OC4CCN(C(=O)C=C)CC4)cc23)c1`: 400 nM; for `C=C(CN1CCCCC1)C(=O)N1CC(Oc2cc3c(Nc4ccc(F)c(Cl)c4F)ncnc3cc2OC)C1`: 9.1 nM; for `COc1cc2ncnc(Nc3ccc(F)c(Cl)c3F)c2cc1OC1CN(C(=O)/C=C\CN(C)C)C1`: 15 nM. As for `C=CC(=O)N1CCC(Oc2cc3c(Nc4ccc5c(c4)CCC5)ncnc3cc2OC)CC1`, the IC50 stood at 29 nM. With `C=CC(=O)N1CCC(Oc2cc3c(Nc4ccc(Cl)cc4)ncnc3cc2OC)CC1` the figure was 4.6 nM.

Compound `C=CC(=O)N1CCC(Oc2cc3c(Nc4cccc(N(C)C)c4)ncnc3cc2OC)CC1` displayed an IC50 of 142 nM. Against the preceding compound, the IC50 is about 31-fold higher. Consider `C=CC(=O)N1CCC(Oc2cc3c(Nc4ccc(F)c(F)c4F)ncnc3cc2OC)CC1`, for which the IC50 is 43 nM. Compared with the last compound, the IC50 is about 3.3-fold lower. The same measure for `C=CC(=O)N1CCC(Oc2cc3c(Nc4ccc(C)c(C)c4)ncnc3cc2OC)CC1`: 19 nM. `COc1cc2ncnc(Nc3ccc(Cl)c(Cl)c3F)c2cc1OC1CCN(C(=O)/C=C/C(=O)O)CC1` yielded an IC50 of 516 nM. `COc1cc2ncnc(Nc3ccc(F)c(Cl)c3F)c2cc1OC1CCN(C(=O)/C=C/C(=O)NO)CC1` showed an IC50 of 187 nM. Against the preceding compound, the IC50 is about 2.8-fold lower. The same measure for `C=CC(=O)N1CC(Oc2cc3c(Nc4cccc(C#N)c4)ncnc3cc2OC)C1`: 17 nM. With `C=CC(=O)N1CC[C@H](Oc2cc3c(Nc4ccc(F)c(Cl)c4F)ncnc3cc2OC)C[C@H]1C(=O)NC(C)C`, the IC50 came out at 7.5 nM. This IC50 lies about 2.3-fold lower than the previous one. The same measure for `C=CC(=O)N1CCC(Oc2cc3c(Nc4ccc(Br)c(F)c4)ncnc3cc2OC)CC1`: 7 nM. The compound `COC(=O)/C=C\C(=O)N1CCC(Oc2cc3c(Nc4ccc(F)c(Cl)c4F)ncnc3cc2OC)CC1` came in with an IC50 of 9 nM. With `C=C(CN1CCN(C)CC1)C(=O)N1CC(Oc2cc3c(Nc4ccc(F)c(Cl)c4F)ncnc3cc2OC)C1` the figure was 1 nM; with `CCN(CC)C/C=C/C(=O)N1CC[C@H](Oc2cc3c(Nc4ccc(F)c(Cl)c4F)ncnc3cc2OC)C1`, 28 nM; with `COc1cc2ncnc(Nc3ccc(F)c(Cl)c3F)c2cc1OC1CN(C(=O)/C=C/Cl)C1`, 44 nM. Compound `COc1cc2ncnc(Nc3ccc(F)c(Cl)c3F)c2cc1O[C@H]1CCN(C(=O)C#CCCN2CCN(C)CC2)C1` returned an IC50 of 53 nM. In turn, `C=CC(=O)N1CCC(Oc2cc3c(Nc4cccc(C(F)(F)F)c4)ncnc3cc2OC)CC1` registered an IC50 of 58 nM. The compound `C=CC(=O)N1CC[C@H](Oc2cc3c(Nc4ccc(F)c(Cl)c4F)ncnc3cc2OC)C[C@H]1C(=O)NCCCO` gave an IC50 of 20 nM. The compound `C=CC(=O)N1CC(Oc2cc3c(Nc4ccc(F)c(Cl)c4F)ncnc3cc2OCCOC)C1` showed an IC50 of 883 nM. The compound `C=CC(=O)N1CCC(Oc2cc3c(Nc4ccc(Cl)cc4O)ncnc3cc2OC)CC1` registered an IC50 of 32 nM. With `COc1cc2ncnc(Nc3ccc(Cl)c(Cl)c3F)c2cc1OC1CCN(C(=O)/C=C/CN(C)C)CC1` the figure was 165 nM; with `COc1cc2ncnc(Nc3ccc(Cl)c(Cl)c3F)c2cc1OC1CCN(C(=O)/C=C\C(=O)O)CC1`, 322 nM. In turn, `COc1cc2ncnc(Nc3ccc(F)c(Cl)c3F)c2cc1OC1CCN(C(=O)C=C(C)C)CC1` returned an IC50 of 38 nM. With `C=CC(=O)N1CC[C@H](Oc2cc3c(Nc4ccc(F)c(Cl)c4F)ncnc3cc2OC)C[C@H]1C(=O)NCC` the figure was 8 nM; with `C=CC(=O)N1CCC(Oc2cc3c(Nc4ccc(OCc5cccc(F)c5)c(Cl)c4)ncnc3cc2OC)CC1`, 10 nM. In turn, `C=C(CN(C)C)C(=O)N1CCC(Oc2cc3c(Nc4ccc(F)c(Cl)c4F)ncnc3cc2OC)CC1` displayed a half-inhibitory concentration (IC50) of 2.7 nM.

(Values after the Kinase Knowledgebase extract (Sharma et al. 2016).)
